From patent US20040138188A1, “Use of TGF-beta inhibitors to counteract pathologic changes in the level or function of steroid/thyroid receptors” (priority 2002, published 2004)

Key:
Assay type in all cases: cell-based
[1] = tested on: glucocorticoid receptor; assay: cDNA microarray, TGFβ1-induced down-regulation of glucocorticoid receptor in normal rat kidney cells (NRK); details: 5 ng/ml huTGF-b1, 24 hours
Description: Normal rat kidney cells (NRK) were cultured in DMEM-21 (high glucose)/10% FCS at 37° C., 5% CO2. Cells were serum starved for 24 hr before treated with 5 ng/ml huTGF-b1 (R&D System) or co-treatment with 1 μM Compound No. 81 or 0.1 μM Compound No. 74 for 24 hours.
Gene expression profiles were determined from cDNA microarrays containing approximately 9000 elements derived from clones isolated from normalized cDNA libraries or purchased from ResGen (Invitrogen Life Technologies, Carlsbad, Calif.). DNA for spotting was generated by PCR amplification using 5′amino-modified primers (BD Biosciences Clontech, Palo Alto, Calif.) derived from flanking vector sequences. […]
(§1) Total RNA was extracted from cells using Qiagen's RNeasy kit. […] Hybridization of each fluorophore was quantified using an Axon GenePix 4000A scanner.
(§2) Differential expression values were expressed as the ratio of the median of background-subtracted fluorescent intensity of the experimental RNA to the median of background-subtracted fluorescent intensity of the control RNA. For ratios greater than or equal to 1.0, the ratio was expressed as a positive value. For ratios less than 1.0, the ratio was expressed as the negative reciprocal (i.e., a ratio of 0.5=−2.0). […] Differential expression ratios were determined as the mean of the two values from dye-swapped duplicates. […]

[2] = tested on: glucocorticoid receptor; assay: cDNA microarray, TGFβ1-induced down-regulation of glucocorticoid receptor in rat lung fibroblasts (RLF); details: 15 ng/ml TGFβ1, 24 hours
Description: Rat lung fibroblasts (RLF) were isolated from perfused rat lung by physical and enzymatic dissociation of lung tissue. […] RLFs were cultured in FGM-2 with 2% FBS (Clonetics # CC-3132). Cells were serum starved for 24 hours, followed by the treatment with 15 ng/ml TGFβ1 (R&D System) or co-treatment with 1 μM Compound No. 81 or 0.1 μM Compound No. 74 for 24 hours.
(§3) Gene expression profiles were determined from cDNA microarrays containing approximately 9000 elements derived from clones isolated from normalized cDNA libraries or purchased from ResGen (Invitrogen Life Technologies, Carlsbad, Calif.). […]
as §1, §2

[3] = tested on: steroid/thyroid receptors; assay: cDNA microarray, TGFβ1-induced down-regulation of steroid/thyroid receptors in human lung fibroblasts; details: 5 ng/ml TGFβ1
Description: Human lung fibroblasts (Cambrex Bio Science) from a person were seeded at 4×10^5 cells (passage 4) in 100 mm dishes and cultured in complete FGM medium (Cambrex Bio Science). The next day, medium was changed to FGM without serum or fibroblast growth factor, but supplemented with 0.2% bovine serum albumin and 50 μg/m; Vitamin C. Cells were serum deprived for 24 hours prior to treating with 5 ng/ml TGFβ1 (R&D Systems) in the presence or absence of 400 nM Compound No. 79. Induction with TGFβ was carried out for various times (7.5 hours, 24 hours, and 3 days) after which RNA was harvested by lysing the cells in RLT buffer (Qiagen) and frozen at −80° C.
as §3, §1
Differential expression values were expressed as the ratio of the median of background-subtracted fluorescent intensity of the experimental RNA to the median of background-subtracted fluorescent intensity of the control RNA. For ratios greater than or equal to 1.0, the ratio was expressed as a positive value. […]

TGF-β1: huTGF-b1 (R&D System), transforming growth factor-beta 1, used to induce receptor down-regulation
down-regulation of glucocorticoid receptor expression at the transcriptional level [1]: 2 fold | down-regulation of glucocorticoid receptor expression at the transcriptional level [2]: 2 fold | expression of seven members of the steroid nuclear receptor family, including glucocorticoid receptor and retinoid receptor C alpha [3]: down-regulates
